From patent US20050203151A1, “Novel compounds, compositions and uses thereof for treatment of metabolic disorders and related conditions” (Kalypsys, Inc., priority 2003, published 2005)
pEC50: −log10 of the molar value. Like-named read-outs stand apart in the source and are kept apart here.

Columns and labels:
Type in all cases: cell-based
[1] = target: T1, PPAR-alpha (Homo sapiens, UniProt Q07869); assay: human PPAR-GAL4 chimera luciferase reporter assay in CV-1 cells, PPAR-alpha
T1 construct: expressed in transfected cells; host or cells: CV-1 cells
T1 sequence (Q07869 239-466 limits assumed): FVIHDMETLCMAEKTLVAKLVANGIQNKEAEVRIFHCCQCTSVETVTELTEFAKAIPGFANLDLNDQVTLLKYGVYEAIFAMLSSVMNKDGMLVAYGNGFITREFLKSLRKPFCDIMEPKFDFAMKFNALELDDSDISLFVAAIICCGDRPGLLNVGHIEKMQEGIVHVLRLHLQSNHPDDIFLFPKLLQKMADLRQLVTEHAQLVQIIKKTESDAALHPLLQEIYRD
Experimental: (§1) The compounds were evaluated in a cell-based assay to determine their human PPAR activity. The plasmids for human PPAR-GAL4 chimeras were prepared by fusing amplified cDNAs encoding the LBDs of PPARs to the C-terminal end of the yeast GAL4 DNA binding domain. CV-1 cells were grown and transiently transected with PerFectin (GTS, San Diego, Calif.) according to the manufacturer's protocol along with a luciferase reporter. Eight hours after transfection, 50 μl of cells were replated into 384 well plates ([…]). Sixteen hours after replating, cells were treated with either compounds or 1% DMSO for 24 hours. Luciferase activity was then assayed with Britelite (Perkin Elmer) following the manufacturer's protocol and measured with either the Perkin Elmer Viewlux or Molecular Devices Acquest.
(§2) Compounds may be screened for functional potency in transient transfection assays in CV-1 cells for their ability to activate the PPAR subtypes (transactivation assay). A previously established chimeric receptor system was utilized to allow comparison of the relative transcriptional activity of the receptor subtypes on the same synthetic response element and to prevent endogenous receptor activation from complicating the interpretation of results. See, for example, Lehmann, J. M.; Moore, L. B.; Smith-Oliver, T. A; Wilkinson, W. O.; Willson, T. M.; Kliewer, S. A., An antidiabetic thiazolidinedione is a high affinity ligand for peroxisome proliferator-activated receptory γ (PPARγ), J. Biol. Chem., 1995, 270, 12953-6. The ligand binding domains for murine and human PPAR-alpha, PPAR-gamma, and PPAR-delta are each fused to the yeast transcription factor GAL4 DNA binding domain. CV-1 cells were transiently transfected with expression vectors for the respective PPAR chimera along with a reporter construct containing four or five copies of the GAL4 DNA binding site driving expression of luciferase. After 8-16 h, the cells are replated into multi-well assay plates and the media is exchanged to phenol-red free DME medium supplemented with 5% delipidated calf serum. 4 hours after replating, cells were treated with either compounds or 1% DMSO for 20-24 hours. Luciferase activity was then assayed with Britelite (Perkin Elmer) following the manufacturer's protocol and measured with either the Perkin Elmer Viewlux or Molecular Devices Acquest (see, for example, Kliewer, S. A., et. al. Cell 1995, 83, 813-819). Rosiglitazone is used as a positive control in the hPPAR-γ assay. Wy-14643 and GW7647 is used as a positive control in the hPPAR-α assay. GW501516 is used as the positive control in the hPPAR-δ assay.

[2] = target: T2, PPAR-gamma (Homo sapiens, UniProt P37231); assay: human PPAR-GAL4 chimera luciferase reporter assay in CV-1 cells, PPAR-gamma
T2 construct: expressed in transfected cells; host or cells: CV-1 cells
T2 sequence (P37231 238-503 limits assumed): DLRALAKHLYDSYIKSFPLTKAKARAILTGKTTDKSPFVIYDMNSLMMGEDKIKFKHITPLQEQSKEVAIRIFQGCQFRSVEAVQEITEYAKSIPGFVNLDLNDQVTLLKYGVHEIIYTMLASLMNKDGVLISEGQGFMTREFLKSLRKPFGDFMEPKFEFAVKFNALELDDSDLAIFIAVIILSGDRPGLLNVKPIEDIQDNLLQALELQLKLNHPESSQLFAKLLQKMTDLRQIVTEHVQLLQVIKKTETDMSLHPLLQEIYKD
Experimental: as §1, §2

[3] = target: T3, PPAR-delta (Homo sapiens, UniProt Q03181); assay: human PPAR-GAL4 chimera luciferase reporter assay in CV-1 cells, PPAR-delta
T3 construct: expressed in transfected cells; host or cells: CV-1 cells
T3 sequence (Q03181 211-439 limits assumed): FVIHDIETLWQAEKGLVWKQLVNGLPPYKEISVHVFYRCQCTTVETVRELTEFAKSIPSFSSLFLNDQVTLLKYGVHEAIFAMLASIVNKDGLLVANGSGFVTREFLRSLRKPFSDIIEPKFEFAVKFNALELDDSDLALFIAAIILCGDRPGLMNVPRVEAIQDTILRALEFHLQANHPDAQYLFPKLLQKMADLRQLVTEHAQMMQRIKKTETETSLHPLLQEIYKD
Experimental: as §1, §2

[4] = Table 2, Examples 1-10, read-out: PPAR α EC50
[5] = Table 2, Examples 1-10, read-out: PPAR γ EC50
[6] = Table 2, Examples 1-10, read-out: PPAR δ EC50
[7] = Table 3, Examples 11-25, read-out: PPAR alpha (EC50)
[8] = Table 3, Examples 11-25, read-out: PPAR gamma (EC50)
[9] = Table 3, Examples 11-25, read-out: PPAR delta (EC50)

| pEC50 [1, 4] | pEC50 [2, 5] | pEC50 [3, 6] | pEC50 [1, 7] | pEC50 [2, 8] | pEC50 [3, 9] | SMILES |
| --- | --- | --- | --- | --- | --- | --- |
| > 6.00 | 5.00 to 6.00 | > 6.00 | – | – | – | Cc1nc(-c2ccc(C(F)(F)F)cc2)sc1COc1cccc(CC(=O)O)c1 [Example 1, {3-[4-methyl-2-(4-trifluoromethyl-phenyl)-thiazol-5-ylmethoxy]-phenyl}-acetic acid] |
| < 5.00 | 5.00 to 6.00 | > 6.00 | – | – | – | Cc1nc(-c2ccc(C(F)(F)F)cc2)sc1COc1cccc2c1ccn2CC(=O)O [Example 4, {4-[4-methyl-2-(4-trifluoromethyl-phenyl)-thiazol-5-ylmethoxy]-indol-1-yl}-acetic acid] |
| < 5.00 | 5.00 to 6.00 | > 6.00 | – | – | – | Cc1nc(-c2ccc(C(F)(F)F)cc2)sc1COc1ccc2ccn(CC(=O)O)c2c1 [Example 5, {6-[4-methyl-2-(4-trifluoromethyl-phenyl)-thiazol-5-ylmethoxy]-indol-1-yl}-acetic acid] |
| < 5.00 | < 5.00 | < 5.00 | – | – | – | Cc1nc(-c2ccc(C(F)(F)F)cc2)sc1Cn1ccc2cc(C(=O)O)ccc21 [Example 10, 1-[4-methyl-2-(4-trifluoromethyl-phenyl)-thiazol-5-ylmethyl]-1H-indole-5-carboxylic acid] |
| – | – | – | 4.00 to 5.30 | 4.00 to 5.30 | 4.00 to 5.30 | Cc1nc(-c2ccc(C(F)(F)F)cc2)sc1Cn1ccc2cc(OCC(=O)O)ccc21 [Example 12, {1-[4-Methyl-2-(4-trifluoromethyl-phenyl)-thiazol-5-ylmethyl]-1H-indol-5-yloxy}-acetic acid] |
| – | – | – | 4.00 to 5.30 | 4.00 to 5.30 | > 5.30 | Cc1nc(-c2ccc(C(F)(F)F)cc2)sc1Cn1ccc2ccc(OCC(=O)O)cc21 [Example 13, {1-[4-Methyl-2-(4-trifluoromethyl-phenyl)-thiazol-5-ylmethyl]-1H-indol-6-yloxy}-acetic acid] |
| – | – | – | > 5.30 | 4.00 to 5.30 | > 5.30 | Cc1nc(-c2ccc(C(F)(F)F)cc2)sc1Cn1ccc2cc(OC(C)(C)C(=O)O)ccc21 [Example 15, 2-Methyl-2-{1-[4-methyl-2-(4-trifluoromethyl-phenyl)-thiazol-5-ylmethyl]-1H-indol-5-yloxy}-propionic acid] |
| – | – | – | 4.00 to 5.30 | 4.00 to 5.30 | > 5.30 | Cc1nc(-c2ccc(C(F)(F)F)cc2)sc1Cn1ccc2ccc(OC(C)(C)C(=O)O)cc21 [Example 16, 2-Methyl-2-{1-[4-methyl-2-(4-trifluoromethyl-phenyl)-thiazol-5-ylmethyl]-1H-indol-6-yloxy}-propionic acid] |
| – | – | – | 4.00 to 5.30 | 4.00 to 5.30 | 4.00 to 5.30 | Cc1nc(-c2ccc(C(F)(F)F)cc2)sc1CCn1ccc2cc(OCC(=O)O)ccc21 [Example 18, (1-{2-[4-Methyl-2-(4-trifluoromethyl-phenyl)-thiazol-5-yl]-ethyl}-1H-indol-5-yloxy)-acetic acid] |
| – | – | – | 4.00 to 5.30 | 4.00 to 5.30 | 4.00 to 5.30 | Cc1nc(-c2ccc(C(F)(F)F)cc2)sc1CCn1ccc2ccc(OCC(=O)O)cc21 [Example 22, (1-{2-[4-Methyl-2-(4-trifluoromethyl-phenyl)-thiazol-5-yl]-ethyl}-1H-indol-6-yloxy)-acetic acid] |

Further lines, the compound ahead of its results:

| SMILES | pEC50 [1, 4] | pEC50 [2, 5] | pEC50 [3, 6] | pEC50 [1, 7] | pEC50 [2, 8] | pEC50 [3, 9] |
| --- | --- | --- | --- | --- | --- | --- |
| Cc1nc(-c2ccc(C(F)(F)F)cc2)sc1CSc1cccc(CC(=O)O)c1 [Example 2, {3-[4-methyl-2-(4-trifluoromethyl-phenyl)-thiazol-5-ylmethylsulfanyl]-phenyl}-acetic acid] | > 6.00 | 5.00 to 6.00 | > 6.00 | – | – | – |
| Cc1nc(-c2ccc(C(F)(F)F)cc2)sc1COc1ccc2c(ccn2CC(=O)O)c1 [Example 3, {5-[4-methyl-2-(4-trifluoromethyl-phenyl)-thiazol-5-ylmethoxy]-indol-1-yl}-acetic acid] | < 5.00 | < 5.00 | < 5.00 | – | – | – |
| Cc1nc(-c2ccc(C(F)(F)F)cc2)sc1COc1cccc2ccn(CC(=O)O)c12 [Example 6, {7-[4-methyl-2-(4-trifluoromethyl-phenyl)-thiazol-5-ylmethoxy]-indol-1-yl}-acetic acid] | < 5.00 | < 5.00 | < 5.00 | – | – | – |
| Cc1nc(-c2ccc(C(F)(F)F)cc2)sc1COc1ccc2[nH]cc(CC(=O)O)c2c1 [Example 7, {5-[4-Methyl-2-(4-trifluoromethyl-phenyl)-thiazol-5-ylmethoxy]-1H-indol-3-yl}-acetic acid] | < 5.00 | > 6.00 | > 6.00 | – | – | – |
| Cc1nc(-c2ccc(C(F)(F)F)cc2)sc1Cn1cc(C(=O)O)c2ccccc21 [Example 8] | < 5.00 | < 5.00 | < 5.00 | – | – | – |
| Cc1nc(-c2ccc(C(F)(F)F)cc2)sc1Cn1ccc2c(C(=O)O)cccc21 [Example 9, 1-[4-methyl-2-(4-trifluoromethyl-phenyl)-thiazol-5-ylmethyl]-1H-indole-4-carboxylic acid] | < 5.00 | < 5.00 | < 5.00 | – | – | – |
| Cc1nc(-c2ccc(C(F)(F)F)cc2)sc1Cn1ccc2c(OCC(=O)O)cccc21 [Example 11, {1-[4-Methyl-2-(4-trifluoromethyl-phenyl)-thiazol-5-ylmethyl]-1H-indol-4-yloxy}acetic acid] | – | – | – | < 4.00 | < 4.00 | < 4.00 |
| Cc1nc(-c2ccc(C(F)(F)F)cc2)sc1Cn1ccc2cccc(OCC(=O)O)c21 [Example 14, {1-[4-Methyl-2-(4-trifluoromethyl-phenyl)-thiazol-5-ylmethyl]-1H-indol-7-yloxy}-acetic acid] | – | – | – | < 4.00 | 4.00 to 5.30 | 4.00 to 5.30 |
| Cc1nc(-c2ccc(C(F)(F)F)cc2)sc1CCN1CCc2cc(OCC(=O)O)ccc21 [Example 17, (1-{2-[4-Methyl-2-(4-trifluoromethyl-phenyl)-thiazol-5-yl]-ethyl}-2,3-dihydro-1H-indol-5-yloxy)-acetic acid] | – | – | – | 4.00 to 5.30 | 4.00 to 5.30 | 4.00 to 5.30 |
| Cc1nc(-c2ccc(C(F)(F)F)cc2)sc1CCN1CCc2cc(OC(C)(C)C(=O)O)ccc21 [Example 19, 2-Methyl-2-(1-{2-[4-methyl-2-(4-trifluoromethyl-phenyl)-thiazol-5-yl]-ethyl}-2,3-dihydro-1H-indol-5-yloxy)-propionic acid] | – | – | – | > 5.30 | 4.00 to 5.30 | > 5.30 |
| Cc1nc(-c2ccc(C(F)(F)F)cc2)sc1CCN1CCc2ccc(OC(C)(C)C(=O)O)cc21 [Example 20, 2-Methyl-2-(1-{2-[4-methyl-2-(4-trifluoromethyl-phenyl)-thiazol-5-yl]-ethyl}-2,3-dihydro-1H-indol-6-yloxy)-propionic acid] | – | – | – | > 5.30 | 4.00 to 5.30 | 4.00 to 5.30 |
| Cc1nc(-c2ccc(C(F)(F)F)cc2)sc1CCn1ccc2cc(OC(C)(C)C(=O)O)ccc21 [Example 21, 2-Methyl-2-(1-{2-[4-methyl-2-(4-trifluoromethyl-phenyl)-thiazol-5-yl]-ethyl}-1H-indol-5-yloxy)-propionic acid] | – | – | – | 4.00 to 5.30 | 4.00 to 5.30 | 4.00 to 5.30 |
